{
  "source": "ChEMBL document CHEMBL1123473",
  "about": "“4,5-Disubstituted primaquine analogues as potential antimalarial agents” (1986)",
  "key": {"Plasmodium cynomolgi [1]": {"tested_on": "Plasmodium cynomolgi", "assay": "Antimalarial activity against Plasmodium cynomolgi in rhesus monkey at a dose 0.1 mg/kg; 0 of 1", "assay_type": "functional"}, "Plasmodium cynomolgi [2]": {"tested_on": "Plasmodium cynomolgi", "assay": "Antimalarial activity against Plasmodium cynomolgi in rhesus monkey 1.0 mg/kg; 1 of 2", "assay_type": "functional"}, "Rhesus monkey [3]": {"tested_on": "Rhesus monkey", "assay": "Number of days between the end of the treatment and relapse was reported at a dose 0.316 mg/kg", "assay_type": "functional, Cercopithecidae"}, "Rhesus monkey [4]": {"tested_on": "Rhesus monkey", "assay": "Number of days between the end of the treatment and relapse was reported at a dose 0.1 mg/kg", "assay_type": "functional, Cercopithecidae"}, "Plasmodium cynomolgi [5]": {"tested_on": "Plasmodium cynomolgi", "assay": "Antimalarial activity against Plasmodium cynomolgi in rhesus monkey 0.316 mg/kg; 0 of 1", "assay_type": "functional"}, "Rhesus monkey [6]": {"tested_on": "Rhesus monkey", "assay": "Number of days between the end of the treatment and relapse was reported at a dose 1.0 mg/kg", "assay_type": "functional, Cercopithecidae"}, "Plasmodium cynomolgi [7]": {"tested_on": "Plasmodium cynomolgi", "assay": "Antimalarial activity against Plasmodium cynomolgi in rhesus monkey at a dose 0.1 mg/kg; 0 of 2", "assay_type": "functional"}, "Plasmodium cynomolgi [8]": {"tested_on": "Plasmodium cynomolgi", "assay": "Antimalarial activity against Plasmodium cynomolgi in rhesus monkey 0.316 mg/kg; 1 of 2", "assay_type": "functional"}, "Plasmodium cynomolgi [9]": {"tested_on": "Plasmodium cynomolgi", "assay": "Antimalarial activity against Plasmodium cynomolgi in rhesus monkey 1.0 mg; 2 of 2", "assay_type": "functional"}, "Plasmodium cynomolgi [10]": {"tested_on": "Plasmodium cynomolgi", "assay": "Antimalarial activity against Plasmodium cynomolgi infected Rhesus monkeys (Macaca mulatta) at 0.0625 mg/kg dose; cured 0 of 2", "assay_type": "functional"}, "Plasmodium cynomolgi [11]": {"tested_on": "Plasmodium cynomolgi", "assay": "Antimalarial activity against Plasmodium cynomolgi infected rhesus monkey at 0.5 mg/kg dose; 1 of 1", "assay_type": "functional"}, "Plasmodium cynomolgi [12]": {"tested_on": "Plasmodium cynomolgi", "assay": "Antimalarial activity against Plasmodium cynomolgi in rhesus monkey at a dose 0.125 mg/kg; 2 of 2", "assay_type": "functional"}, "Plasmodium cynomolgi [13]": {"tested_on": "Plasmodium cynomolgi", "assay": "Antimalarial activity against Plasmodium cynomolgi infected rhesus monkey at 0.25 mg/kg; 2 of 2", "assay_type": "functional"}, "Plasmodium cynomolgi [14]": {"tested_on": "Plasmodium cynomolgi", "assay": "Antimalarial activity against Plasmodium cynomolgi in rhesus monkey 1.0 mg/kg; 0 of 1", "assay_type": "functional"}, "Plasmodium cynomolgi [15]": {"tested_on": "Plasmodium cynomolgi", "assay": "Antimalarial activity against Plasmodium cynomolgi in rhesus monkey 1.0 mg/kg; 0 of 2", "assay_type": "functional"}, "Plasmodium cynomolgi [16]": {"tested_on": "Plasmodium cynomolgi", "assay": "Antimalarial activity against Plasmodium cynomolgi infected rhesus monkey at 0.5 mg/kg dose; cured 4 of 6", "assay_type": "functional"}, "Plasmodium cynomolgi [17]": {"tested_on": "Plasmodium cynomolgi", "assay": "Antimalarial activity against Plasmodium cynomolgi infected rhesus monkey at 0.75 mg/kg dose; 4 of 6", "assay_type": "functional"}, "Plasmodium cynomolgi [18]": {"tested_on": "Plasmodium cynomolgi", "assay": "Antimalarial activity against Plasmodium cynomolgi infected rhesus monkey at 0.25 mg/kg dose; 0 of 6", "assay_type": "functional"}},
  "data": [
    {"smiles": "C=Cc1ccnc2c(NC(C)CCCN)cc(OC)c(OC)c12", "note": "(centres undefined)", "values": [
      {"measurement": "Cures", "setting": "Plasmodium cynomolgi [1]", "value": 0},
      {"measurement": "Cures", "setting": "Plasmodium cynomolgi [2]", "value": 1},
      {"measurement": "Relapses", "setting": "Rhesus monkey [3]", "value": 23},
      {"measurement": "Relapses", "setting": "Rhesus monkey [4]", "value": 9},
      {"measurement": "Cures", "setting": "Plasmodium cynomolgi [5]", "value": 0},
      {"measurement": "Relapses", "setting": "Rhesus monkey [6]", "value": 27}
    ]},
    {"smiles": "COCc1ccnc2c(NC(C)CCCN)cc(OC)c(Oc3cccc(C(F)(F)F)c3)c12", "note": "(centres undefined)", "values": [
      {"measurement": "Relapses", "setting": "Rhesus monkey [3]", "value": 28},
      {"measurement": "Relapses", "setting": "Rhesus monkey [4]", "value": 8},
      {"measurement": "Cures", "setting": "Plasmodium cynomolgi [7]", "value": 0},
      {"measurement": "Cures", "setting": "Plasmodium cynomolgi [8]", "value": 1},
      {"measurement": "Cures", "setting": "Plasmodium cynomolgi [9]", "value": 2}
    ]},
    {"smiles": "COc1cc(NC(C)CCCN)c2nccc(C)c2c1OC", "note": "(centres undefined)", "values": [
      {"measurement": "Cures", "setting": "Plasmodium cynomolgi [10]", "value": 0},
      {"measurement": "Cures", "setting": "Plasmodium cynomolgi [11]", "value": 1},
      {"measurement": "Cures", "setting": "Plasmodium cynomolgi [12]", "value": 2},
      {"measurement": "Cures", "setting": "Plasmodium cynomolgi [13]", "value": 2}
    ]},
    {"smiles": "COc1cc(NC(C)CCCN)c2nccc(COc3cccc(C(F)(F)F)c3)c2c1OC", "note": "(centres undefined)", "values": [
      {"measurement": "Cures", "setting": "Plasmodium cynomolgi [14]", "value": 0},
      {"measurement": "Relapses", "setting": "Rhesus monkey [6]", "value": 12}
    ]},
    {"smiles": "COc1cc(NC(C)CCCN)c2nccc(COc3cccc(C(F)(F)F)c3)c2c1Oc1cccc(C(F)(F)F)c1", "note": "(centres undefined)", "values": [
      {"measurement": "Cures", "setting": "Plasmodium cynomolgi [1]", "value": 0},
      {"measurement": "Relapses", "setting": "Rhesus monkey [4]", "value": 11},
      {"measurement": "Cures", "setting": "Plasmodium cynomolgi [15]", "value": 0},
      {"measurement": "Relapses", "setting": "Rhesus monkey [6]", "value": 11}
    ]},
    {"smiles": "COc1cc(NC(C)CCCN)c2ncccc2c1", "note": "(centres undefined) [PRIMAQUINE]", "values": [
      {"measurement": "Cures", "setting": "Plasmodium cynomolgi [16]", "value": 4},
      {"measurement": "Cures", "setting": "Plasmodium cynomolgi [17]", "value": 4},
      {"measurement": "Cures", "setting": "Plasmodium cynomolgi [18]", "value": 0}
    ]}
  ]
}
